Data from US20050032904A1, “Composition and use of allylamine derivatives” (priority 2003, published 2005).

How the values were obtained:
HT 29 cells = experiment: Flow cytometry (FACS) cell cycle analysis; format: cell-based, human
[1] = system: cell cycle regulatory proteins in Hep 3B cells; experiment: Western blot of cell cycle regulatory proteins; format: cell-based, human; conditions: TB 60-150 μM, 15 h
Experimental: (§1) To further test this hypothesis, the dose effects of TB on the levels of cell cycle regulatory protein were conducted in four different human cancer cell lines, COLO 205 (p53 wild type), HT 29 (p53 […] mutant), Hep 3B (p53 partial deleted) and HL 60 (p53 null). […] The cells were rendered quiescent for 24 h, and then challenged with 10% FCS and treated with various concentrations of TB (60-150 μM) for additional 15 h. Protein extracts (100 μg/lane) were separated by SDS-PAGE, probed with specific antibodies, and detected using the NBT/BCIP system. Membranes were also probed with anti-GAPDH antibody to correct for differences in protein loading. As previously described (Chen R J, et. al., Toxicology & Applied Pharmacology 2000;169(2):132-41.), the frozen tumor was pulverized in liquid N2, and then mixed with lysis buffer (Tris-HCl 0.5 M, pH 6.8, SDS 0.4%). For cell cultures, the cells were seeded onto 150-mm dishes and grown in RPMI 1640 (for COLO 205, HT 29 and HL 60 cells) or MEM (for Hep 3B) supplemented with 10% FCS. After the cells had grown to subconfluence, they were rendered quiescent. The cells were released from quiescence with culture medium supplemented with 10% FCS. TB in 0.05% DMSO or 0.05% DMSO without TB was added to the cells at various concentrations and the mixture was allowed to incubate for 17 h. Western blot analysis was performed as previously described (Chen R J, et. al., Toxicology & Applied Pharmacology 2000;169(2):132-41; Lee W S, et. al., Circulation Research 1998;82(8):845-51.). Immunodetection was carried by probing with proper dilutions of specific antibodies at room temperature for 2 h. Anti-p21/Cip1, anti-p27/Kip1, anti-p53, anti-GAPDH monoclonal antibodies (Santa Cruz, Inc. CA); anti-cyclin B1, D1, and D3, anti-cdk2 and cdk4, and PCNA monclonal antibodies (Transduction Laboratories, Lexington, Ky.) were used at a concentration of 1:1,000 dilution. Anti-cyclin A and E polyclonal antibodies (Transduction, San Diego, Calif.) were used at a concentration of 1:250 dilution. […] Sigma Chemical Co., St. Louis, Mo.). In each experiment, membranes were also probed with anti-GAPDH antibody to correct for differences in protein loading.

[2] = system: cell cycle regulatory proteins in HL 60 cells; experiment: Western blot of cell cycle regulatory proteins; format: cell-based, human; conditions: TB 60-150 μM, 15 h
Experimental: as §1

[3] = system: cell cycle regulatory proteins in HT 29 cells; experiment: Western blot of cell cycle regulatory proteins; format: cell-based, human; conditions: TB 60-150 μM, 15 h; dose-dependent
Experimental: as §1

COLO 205 tumor tissues = experiment: DNA fragmentation analysis / TdT nick end labeling in tumor tissues; format: in vivo, nude mouse; conditions: tumor from TB-treated mouse, 6 weeks
COLO 205 cells = experiment: Flow cytometry (FACS) cell cycle analysis; format: cell-based, human
Experimental: When they were returned to culture media containing 10% FCS and 0.05% DMSO (control) or 90 μM TB in 0.05% DMSO (which started them all on a new cell cycle) and, at various times thereafter, they were harvested for flow cytometry analysis. […] COLO 205 (A) and HT29 (B) cells were synchronized with 0.04% FCS for 24 h as described in Examples. After synchronization, the cells were then released into complete medium (10% FCS) containing 0.05% DMSO (left panel), or 90 μM TB in 0.05% DMSO (right panel). Percentage of cells in G0/G1, S, and G2/M phases of the cell cycle were determined using established CellFIT DNA analysis software. […] In Hep3B (D) and HL60 (E), TB caused the occurrence of apoptosis in a dose-dependent manner. […] FACS analysis of DNA content after 15 h release from quiescence by incubation in culture media supplemented with 10% FCS and various concentrations of TB in 0.05% DMSO. Percentage of cells in G0/G1, S, and G2/M phases of the cell cycle were determined using established CellFIT DNA analysis software.
The invention further tested whether TB can induce cell cycle arrest at a lower concentration with longer exposure. […] The COLO 205 cells were exposed to culture media supplemented with 10% FCS and various concentrations (1 and 5 μM) of TB in 0.05% DMSO for the indicated times. Media with and without TB were changed daily until flowcytometry analysis performed. Percentage of cells in G0/G1, S, and G2/M phases of the cell cycle were determined using established CellFIT DNA analysis software. Three samples were analyzed in each group, and values represent the mean±S.E.
The COLO 205 and HT 29 cells were synchronized as previously described. (Chen R J, et. al., Toxicology & Applied Pharmacology 2000;169(2):132-41.). After the cells had grown to 70-80% confluence, they were rendered quiescent by incubation for 24 h in RPMI 1640 containing 0.04% FCS, and challenged with 10% FCS. Then, after release using trypsin-EDTA, they were harvested at various times, washed twice with PBS/0.1% dextrose, and fixed in 70% ethanol at 4° C. Nuclear DNA was stained with a reagent containing propimdiamdiodine (50 DNase-free RNase (2 U/ml) and measured using a fluorescence-activated cell sorter (FACS). The population of nuclei in each phase of the cell cycle was determined using established CellFIT DNA analysis software (Becton Dickenson, San Jose, Calif.).

Hep G2 cells = experiment: Flow cytometry (FACS) cell cycle analysis; format: cell-based, human; conditions: various concentrations of TB, 15 h after release from quiescence; dose-dependent
[4] = 90 μM TB after release from quiescence
[5] = various concentrations of TB, 15 h after release from quiescence, dose-dependent

In the case of `CN(C/C=C/C#CC(C)(C)C)Cc1cccc2ccccc12` [TB, 1-Naphthalenemethanamine, N-(6,6-dimethyl-2-hepten-4-ynyl)-N-methyl-, (E)-], the “accumulation of cells at the G0/G1 phase” value (HT 29 cells; [4]) is reported as > 90%, the “G0/G1 arrest, dose effect” value (HT 29 cells; [5]) is reported as “induced G0/G1 arrest” and the “levels of p53 and p21/Cip1 protein, dose effect” value [1] is reported as “did not change”. For the same compound, the “levels of p27/Kip1 protein, dose effect” value ([1]; dose-dependent) was “significantly increased”, the “levels of p53 and p21/Cip1 protein, dose effect” value [2] was “did not change” and the “levels of p27/Kip1 protein, dose effect” value ([2]; dose-dependent) was “significantly increased”. For the same compound, the “levels of cyclin D3 and cdk4, dose effect” value [3] was “decreased”, the “levels of p53, p21/Cip1 and p27/Kip1 protein, dose effect” value [3] was “increased” and the “apoptosis in COLO 205 tumor (nick end labeling, DNA fragmentation)” value (COLO 205 tumor tissues) was “Induction of apoptosis”. The “increase of G0/G1 population” value (COLO 205 cells; 60 μM TB alone, 15 h) was “about 2.3 fold”, the “accumulation of cells at the G0/G1 phase” value (COLO 205 cells; [4]) was > 90% and the “G0/G1 cell cycle arrest at low concentration with longer exposure” value (COLO 205 cells; TB 1 μM for 3 days) was “arrested the COLO 205 cells at the G0/G1 phase”. For the same compound, the “G0/G1 cell cycle arrest at low concentration with longer exposure” value (COLO 205 cells; TB 1 μM for 4 days, media changed daily) was “induce significant G0/G1 cell cycle arrest”, the “G0/G1 arrest, dose effect” value (COLO 205 cells; [5]) was “induced G0/G1 arrest” and the “G0/G1 arrest, dose effect” value (Hep G2 cells) was “induced G0/G1 arrest”.
